Experimental data taken from ChEMBL document CHEMBL1201862, “PubChem BioAssay data set” (2004).
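96-well plates; 48 h exposure; 5 concentrations. Endpoints by linear interpolation between flanking doses. Not reached: highest tested concentration assigned. GI50 is the concentration that inhibits growth by half.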 The source made the active and inactive calls. Cut-off read from the data, not from the text of the source: active = GI50 up to about 1.1 µM and inactive = higher.

Tests used:
Experiment in all cases: NCI tumour cell line growth inhibition, 48 h
[1] = system: SW-620
[2] = system: SF-295
[3] = system: SK-MEL-2
[4] = system: BT-549
[5] = system: SK-MEL-5
[6] = system: A498
[7] = system: EKVX
[8] = system: SN12C
[9] = system: RXF 393
[10] = system: HCT-116
[11] = system: OVCAR-5
[12] = system: HCC 2998
[13] = system: Hs-578T
[14] = system: SF-539
[15] = system: UACC-257
[16] = system: NCI-H23
[17] = system: OVCAR-4
[18] = system: PC-3
[19] = system: LXFL 529

| Compound | GI50 [1] | GI50 [2] | GI50 [3] | GI50 [4] | GI50 [5] | GI50 [6] | GI50 [7] | GI50 [8] | GI50 [9] | GI50 [10] | GI50 [11] | GI50 [12] | GI50 [13] | GI50 [14] | GI50 [15] | GI50 [16] | GI50 [17] | GI50 [18] | GI50 [19] |
| --- | --- | --- | --- | --- | --- | --- | --- | --- | --- | --- | --- | --- | --- | --- | --- | --- | --- | --- | --- |
| CC1(C)[C@@H]2CC[C@]1(C)[C@H](OC(=O)/C=C/c1ccccc1)C2 | 15.5 µM (inactive) | 18 µM (inactive) | 17.4 µM (inactive) | 21.9 µM (inactive) | 16.7 µM (inactive) | 18.3 µM (inactive) | 19.9 µM (inactive) | 18.8 µM (inactive) | 16.9 µM (inactive) | 18.4 µM (inactive) | 19.6 µM (inactive) | 17 µM (inactive) | 19.5 µM (inactive) | 20.7 µM (inactive) | 23.8 µM (inactive) | 21.7 µM (inactive) | 22 µM (inactive) | 23.4 µM (inactive) | – |
| O=[N+]([O-])c1cc(C(F)(F)F)ccc1S(=O)(=O)N[C@@H]1CCCC[C@H]1NS(=O)(=O)c1ccc(C(F)(F)F)cc1[N+](=O)[O-] | 3.78 µM (inactive) | 2.86 µM (inactive) | 2.82 µM (inactive) | 2.23 µM (inactive) | 3.58 µM (inactive) | 5.43 µM (inactive) | 6.5 µM (inactive) | 3.45 µM (inactive) | 2.45 µM (inactive) | 3.43 µM (inactive) | 56.2 µM (inactive) | 4.28 µM (inactive) | 2.48 µM (inactive) | 1.81 µM (inactive) | 8.07 µM (inactive) | 2.28 µM (inactive) | 2.61 µM (inactive) | 3.11 µM (inactive) | – |
| O=C(/C=C/c1ccccc1)CSc1nc2ccc(I)cc2c(=O)n1Cc1ccccc1 | 38.6 µM (inactive) | 14 µM (inactive) | 28.4 µM (inactive) | > 77.4 µM (inactive) | 12.7 µM (inactive) | 14.3 µM (inactive) | 7.18 µM (inactive) | 9.86 µM (inactive) | 17 µM (inactive) | 19.8 µM (inactive) | > 100 µM (inactive) | 19.3 µM (inactive) | 25.3 µM (inactive) | 39.9 µM (inactive) | 19.4 µM (inactive) | 18.1 µM (inactive) | 21.3 µM (inactive) | 18.3 µM (inactive) | – |
| CC1(c2ccccc2)CC(c2ccccc2)=NO1 (stereo unspecified) | > 100 µM (inactive) | > 100 µM (inactive) | > 100 µM (inactive) | – | > 100 µM (inactive) | > 100 µM (inactive) | > 100 µM (inactive) | > 100 µM (inactive) | – | > 100 µM (inactive) | > 100 µM (inactive) | > 100 µM (inactive) | – | > 100 µM (inactive) | > 100 µM (inactive) | > 100 µM (inactive) | > 100 µM (inactive) | – | > 100 µM (inactive) |
| CCOC(=O)c1ccc(C(=O)/C(C(C)=O)=C2\CCCN2C)n1C | 69.7 µM (inactive) | 56.9 µM (inactive) | > 100 µM (inactive) | > 100 µM (inactive) | 42.9 µM (inactive) | 65.8 µM (inactive) | 18.2 µM (inactive) | > 100 µM (inactive) | 29.5 µM (inactive) | 30.6 µM (inactive) | > 100 µM (inactive) | > 100 µM (inactive) | > 100 µM (inactive) | 0.303 µM (active) | > 100 µM (inactive) | 90.6 µM (inactive) | 71.1 µM (inactive) | > 100 µM (inactive) | – |
| O=C(/C=C/C=C/c1ccccc1)CCc1ccccc1 | 37.6 µM (inactive) | > 100 µM (inactive) | > 100 µM (inactive) | > 100 µM (inactive) | > 100 µM (inactive) | > 100 µM (inactive) | > 100 µM (inactive) | > 100 µM (inactive) | > 100 µM (inactive) | 40.7 µM (inactive) | > 100 µM (inactive) | > 100 µM (inactive) | 75.9 µM (inactive) | > 100 µM (inactive) | > 100 µM (inactive) | 63.7 µM (inactive) | 70.3 µM (inactive) | 83 µM (inactive) | – |
| COC12COC(=O)C1C(c1ccc3c(c1)OCO3)c1cc3c(cc1O2)OCO3 (stereo unspecified) | 8.49 µM (inactive) | 6.95 µM (inactive) | 17.6 µM (inactive) | 15.6 µM (inactive) | 11.2 µM (inactive) | 29.2 µM (inactive) | 37.1 µM (inactive) | 40 µM (inactive) | 10.3 µM (inactive) | 11.1 µM (inactive) | > 73.1 µM (inactive) | 15.6 µM (inactive) | 19.5 µM (inactive) | 10.7 µM (inactive) | 27.9 µM (inactive) | 35.6 µM (inactive) | 36.5 µM (inactive) | 12.6 µM (inactive) | – |
| Cn1c(=O)cc(Nc2ccc(N)cc2)[nH]c1=O | > 100 µM (inactive) | > 100 µM (inactive) | > 100 µM (inactive) | > 100 µM (inactive) | > 100 µM (inactive) | > 100 µM (inactive) | > 100 µM (inactive) | > 100 µM (inactive) | > 100 µM (inactive) | > 100 µM (inactive) | > 100 µM (inactive) | > 100 µM (inactive) | > 100 µM (inactive) | > 100 µM (inactive) | > 100 µM (inactive) | > 100 µM (inactive) | > 100 µM (inactive) | > 100 µM (inactive) | – |
